The source of these data is patent US10358409B2, “Low-toxicity olefinic ester compositions and methods of using the same” (Elevance Renewable Sciences, Inc., priority 2014, dated 2019).

The test system of the data set is leptocheirus plumolosus. Kind of data set: Aquatic toxicity, EPA Test No. 1644, percent survival after 10 days of exposure. The format is in vivo. How it is done: The aquatic toxicity of three cyclohexyl esters were tested against three comparative compounds. Aqueous samples of the following solvents were prepared at concentrations of 3200 mg/kg: xylene (Sample 2A); methyl 9-dodecenoate (Sample 2B); methyl esters of a mixture of C13-15 olefinic acids (Sample 2C); cyclohexyl 9-decenoate (Sample 2D); cyclohexyl 9-dodecenoate (Sample 2E); and cyclohexyl esters of a mixture of C13-15 olefinic acids. Using United States Environmental Protection Agency (EPA) Test No. 1644, the toxicity of the aqueous compositions was measured as the percent survival of leptocheirus plumolosus after 10 days of exposure. Table 1 recites the survival rates for each of the above compositions.

[1] abbreviates: Leptocheirus plumolosus, in vivo, 3200 mg/kg, 10 days.

Turning to `CCC=CCCCCCCCC(=O)OC` [Sample 2B, methyl 9-dodecenoate], the “Survival Rate (%)” value under setting [1] worked out at 47%. On to `C=CCCCCCCCC(=O)OC1CCCCC1` [Sample 2D, cyclohexyl 9-decenoate], for which the “Survival Rate (%)” value under setting [1] was found to be 57%. Take `CCC=CCCCCCCCC(=O)OC1CCCCC1` [Sample 2E, cyclohexyl 9-dodecenoate]: the “Survival Rate (%)” value under setting [1] amounted to 89%. Take xylene [Sample 2A]: the “Survival Rate (%)” value (aqueous samples of the solvent at 3200 mg/kg, percent survival of leptocheirus plumolosus after 10 days of exposure) was 69%.
